Assay results as given in patent US6479454B1, “Antimicrobial compositions and methods containing hydrogen peroxide and octyl amine oxide” (Ecolab Inc., priority 2000, dated 2002).

Key:
Pseudomonas aeruginosa = experiment: Minimal Bactericidal Concentration (MBC), Ecolab S.O.P. Method MS009 (A.O.A.C. Method 960.09); assay type: cell-based
Description: The term Minimal Bactericidal Concentration is used in the present invention to mean a 5 log reduction in microbe count.
An experiment was conducted to determine the Minimal Bactericidal Concentration (MBC) of octyldimethylamine oxide alone, hydrogen peroxide alone and two mixtures of octyldimethylamine oxide with hydrogen peroxide against Pseudomonas aeruginosa. Experiments were conducted using standard bacteriological techniques, specifically Ecolab Microbiological Services S.O.P. Method MS009 (reference to A.O.A.C. Method 960.09). […] The 50%/50% relative composition of amine oxide:hydrogen peroxide has a pH of 7.4 and an oxidation potential of 250 mV when diluted to 1.7% total oxidizer.

Salmonella javiana = experiment: Antimicrobial activity (log reduction) on a tomato surface; assay type: cell-based
Description: A second experiment was conducted to determine the synergistic effects of mixing an amine oxide, peracetic acid and hydrogen peroxide. Combinations of peracetic acid and hydrogen peroxide were measured in the presence and absence of a tetradecyl-dimethylamine oxide for antimicrobial activity against Salmonella javiana. Testing was performed on a tomato surface.

OO [0/100, hydrogen peroxide]
MBC ppm peroxide (Pseudomonas aeruginosa; MBC = 5 log reduction in microbe count, expressed as hydrogen peroxide concentration): >2,000 ppm

CCCCCCCC[N+](C)(C)[O-] [100/0, octyldimethylamine oxide]
concentration required to obtain MBC (Pseudomonas aeruginosa; MBC = 5 log reduction): greater than 2000 parts per million
MBC (Pseudomonas aeruginosa; Pseudomonas aeruginosa, MBC = 5 log reduction in microbe count, expressed as octyldimethylamine oxide concentration, read-out: MBC ppm amine oxide): > 2000 µg/mL

CCCCCCCCCCCCCC[N+](C)(C)[O-] [Amine Oxide Alone, tetradecyl-dimethylamine oxide]
Log Reduction (S. Javiana) (Salmonella javiana; ppm of each component as given in the table row): <0.2
antimicrobial activity against S. javiana (in words) (Salmonella javiana; text summary of Table II): fairly ineffective
